Assay results reported in US20100028419A1, “MEMBRANE(S) AND USES THEREOF” (priority 2007, published 2010).

Columns and labels:
[1] = tested on: amoeba Chaos cells; experiment: Continuous addition of DPA (C22:5) into amoeba culture medium, TEM study; assay type: cell-based, Chaos carolinense; conditions: 0.1 mM final concentration, fed Chaos cells with Paramecium present, 3 additions on alternate days, fixed at day 5
Method: All-cis-4,7,10,13,16 Docosapentaneoic Acid (DPA, C22:5n-6) (Sigma) and Cis-7,10,13,16,19 DPA (C22:5n-3) (Sigma) were dissolved in Diethyl Ether and added to the amoeba culture media at a final concentration of 0.1 mM. DPA (n-3) and DPA (n-6) were added separately after amoeba washing and in the presence of the food organisms (Paramecium multimicronucleatum). The procedure was performed every alternative day for a total of 3 times according to the regular feeding schedule. At day 5 post-DPA treatment Chaos cells were fixed in 2.5% glutaraldehyde for TEM processing according to the procedure described in Example 6.

[2] = tested on: MCF-7 cells; experiment: In vitro transfection: uptake of fragmented ODN-cubic membrane complexes, fluorescence microscopy and TEM; assay type: cell-based, human; conditions: 5 h
Method: Isolated mitochondria pellets (from fed, 10 days starved Chaos cells and mice liver) from Example 1 and transfected MCF-7 cell pellet prepared according to Example 4 were studied by the conventional TEM technique. Samples in the pellet forms were first fixed individually with 2.5% glutaraldehyde in 1×PBS at 4° C. After washing 4 times with 1×PBS buffer over 1 h to remove glutaraldehyde, the samples were post-fixed with 1% osmium tetroxide in 1× PBS buffer (pH 7.4) for 20 min at room temperature. The specimens were then washed 4 times with the 1×PBS buffer at 4° C. Thereafter 3% gelatin in PBS was added for 30 min before spinning down to collect the pellets at 2,500 rpm for 5 min. The specimens were stored at 4° C. overnight and the steps of adding 2.5% glutaraldehyde in PBS and washing with PBS were repeated for another cycle. The bigger specimens were trimmed into small cubes (1 mm in length) and washed with distilled water for 5 min. Dehydration through ethanol series was done using ethanol of 25%, 50%, 75%, 95% and 100% for 10 min each at room temperature. The specimens were then infiltrated with 100% acetone: resin in 1:1 ratio for 30 min at room temperature and with 100% acetone: resin in 1:6 ratio overnight. […]
There were three negative controls. […] The remaining cells were viewed 5 h post-transfection under the fluorescence microscope for the uptake of tagged-ODNs.

| Compound | inner mitochondrial membrane transformation to cubic organization (TEM) [1] | inclusion bodies in cells (TEM) [2] |
| --- | --- | --- |
| CCCCC/C=C\C/C=C\C/C=C\C/C=C\C/C=C\CCC(=O)O [DPA (n-6), All-cis-4,7,10,13,16 Docosapentaneoic Acid] | enhanced their inner mitochondrial membrane transformation from random tubular (A) to cubic organization (D) |  |
| 5′ tct ccc agc gtg cgc cat 3′ (DNA TCTCCCAGCGTGCGCCAT; chemistry not given here) [naked ODNs] |  | no inclusion bodies observed |
| CC/C=C\C/C=C\C/C=C\C/C=C\C/C=C\CCCCCC(=O)O [DPA (n-3), Cis-7,10,13,16,19 DPA] | did not have the same drastic effects on the inner mitochondrial membrane organization |  |
